Measured values as given in patent publication US10760110B2, “Antibiotic testing and screening system” (priority 2017, dated 2020).
Like-named read-outs stand apart in the source and are kept apart here.

Tested on: K. pneumoniae NVT1001 strains with ESBL or AmpC β-lactamase plasmids
Experiment: Etest MIC of β-lactams, OmpK35/36 loss, ΔramR and/or extended-spectrum β-lactamase and AmpC β-lactamase (Table 8)
Type: cell-based, Klebsiella pneumoniae
Settings: for MIC: Klebsiella pneumoniae
Description: DNA fragments of the resistance genes along with their flanking regions were amplified from clinical plasmids via PCR with specific primer pairs. The resulting PCR fragments were digested and then cloned into the plasmid pACYC177 or pACYC184. The resulting plasmids were then transformed into K. pneumoniae strain NVT1001 via electroporation. The recombinant bacteria were plated onto LB agar plates containing kanamycin (50 mg/L) or chloramphenicol (50 mg/L), and the presence of the cloned gene was confirmed via PCR and DNA sequencing.
The MICs of antibiotics were determined using the Etest (Biodisk AB, Sweden) according to the manufacturer's instructions. The MICs from the Etest, which fall between standard two-fold dilutions, were rounded up to the next highest two-fold value. The MICs of ceftazidime and cefotaxime against K. pneumoniae NVT1001 harbouring the pACYC177 plasmid with blaOXA-48 were further determined using a broth microdilution test according to the recommendations of the CLSI,^25 and the results were interpreted according to the breakpoints established by the CLSI in 2017.^25 Meanwhile, due to the lack of CLSI breakpoints in 2016 and 2017, the results for cephalothin were interpreted according to the breakpoints established by the CLSI in 2015,^26 and the results for moxifloxacin were interpreted according to the breakpoints established by the EUCAST in 2017.^27

[1] = CMY-2 on pACYC177, WT (NVT1001), read-out: MIC
[2] = CMY-2 on pACYC177, Δ35 (ΔompK35 mutant)
[3] = CMY-2 on pACYC177, Δ35/36 (ΔompK35/36 mutant)
[4] = CMY-2 on pACYC177, Δ36 (ΔompK36 mutant)
[5] = CMY-2 on pACYC177, ΔramR mutant
[6] = CMY-2 on pACYC177, ΔramRΔ35 (ΔramRΔompK35 mutant)
[7] = CMY-2 on pACYC177, ΔramRΔ35/36 (ΔramRΔompK35/36 mutant)
[8] = CMY-2 on pACYC177, ΔramRΔ36 (ΔramRΔompK36 mutant)
[9] = CTX-M-14 on pACYC177, WT (NVT1001), read-out: MIC
[10] = CTX-M-14 on pACYC177, Δ35 (ΔompK35 mutant)
[11] = CTX-M-14 on pACYC177, Δ35/36 (ΔompK35/36 mutant)
[12] = CTX-M-14 on pACYC177, Δ36 (ΔompK36 mutant)
[13] = CTX-M-14 on pACYC177, ΔramR mutant
[14] = CTX-M-14 on pACYC177, ΔramRΔ35 (ΔramRΔompK35 mutant)
[15] = CTX-M-14 on pACYC177, ΔramRΔ35/36 (ΔramRΔompK35/36 mutant)
[16] = CTX-M-14 on pACYC177, ΔramRΔ36 (ΔramRΔompK36 mutant)
[17] = CTX-M-15 on pACYC177, WT (NVT1001), read-out: MIC
[18] = CTX-M-15 on pACYC177, Δ35 (ΔompK35 mutant)
[19] = CTX-M-15 on pACYC177, Δ35/36 (ΔompK35/36 mutant)
[20] = CTX-M-15 on pACYC177, Δ36 (ΔompK36 mutant)
[21] = CTX-M-15 on pACYC177, ΔramR mutant
[22] = CTX-M-15 on pACYC177, ΔramRΔ35 (ΔramRΔompK35 mutant)
[23] = CTX-M-15 on pACYC177, ΔramRΔ35/36 (ΔramRΔompK35/36 mutant)
[24] = CTX-M-15 on pACYC177, ΔramRΔ36 (ΔramRΔompK36 mutant)
[25] = DHA-1-AmpR on pACYC177, WT (NVT1001), read-out: MIC
[26] = DHA-1-AmpR on pACYC177, Δ35 (ΔompK35 mutant)
[27] = DHA-1-AmpR on pACYC177, Δ35/36 (ΔompK35/36 mutant)
[28] = DHA-1-AmpR on pACYC177, Δ36 (ΔompK36 mutant)
[29] = DHA-1-AmpR on pACYC177, ΔramR mutant
[30] = DHA-1-AmpR on pACYC177, ΔramRΔ35 (ΔramRΔompK35 mutant)
[31] = DHA-1-AmpR on pACYC177, ΔramRΔ35/36 (ΔramRΔompK35/36 mutant)
[32] = DHA-1-AmpR on pACYC177, ΔramRΔ36 (ΔramRΔompK36 mutant)
[33] = SHV-12 on pACYC177, WT (NVT1001), read-out: MIC
[34] = SHV-12 on pACYC177, Δ35 (ΔompK35 mutant)
[35] = SHV-12 on pACYC177, Δ35/36 (ΔompK35/36 mutant)
[36] = SHV-12 on pACYC177, Δ36 (ΔompK36 mutant)
[37] = SHV-12 on pACYC177, ΔramR mutant
[38] = SHV-12 on pACYC177, ΔramRΔ35 (ΔramRΔompK35 mutant)
[39] = SHV-12 on pACYC177, ΔramRΔ35/36 (ΔramRΔompK35/36 mutant)
[40] = SHV-12 on pACYC177, ΔramRΔ36 (ΔramRΔompK36 mutant)
[41] = no supplemental plasmid, WT (NVT1001), read-out: MIC
[42] = no supplemental plasmid, Δ35 (ΔompK35 mutant)
[43] = no supplemental plasmid, Δ35/36 (ΔompK35/36 mutant)
[44] = no supplemental plasmid, Δ36 (ΔompK36 mutant)
[45] = no supplemental plasmid, ΔramR mutant
[46] = no supplemental plasmid, ΔramRΔ35 (ΔramRΔompK35 mutant)
[47] = no supplemental plasmid, ΔramRΔ35/36 (ΔramRΔompK35/36 mutant)
[48] = no supplemental plasmid, ΔramRΔ36 (ΔramRΔompK36 mutant)

Compound: C[C@H]1[C@H](NC(=O)/C(=N\OC(C)(C)C(=O)O)c2csc(N)n2)C(=O)N1S(=O)(=O)O [Aztreonam]
- MIC [1]: 64 µg/mL
- MIC [2]: 128 µg/mL
- MIC [3]: 256 µg/mL
- MIC [4]: 64 µg/mL
- MIC [5]: 64 µg/mL
- MIC [6]: 64 µg/mL
- MIC [7]: 64 µg/mL
- MIC [8]: 64 µg/mL
- MIC [9]: 2 µg/mL
- MIC [10]: 16 µg/mL
- MIC [11]: 32 µg/mL
- MIC [12]: 2 µg/mL
- MIC [13]: 16 µg/mL
- MIC [14]: 16 µg/mL
- MIC [15]: 32 µg/mL
- MIC [16]: 16 µg/mL
- MIC [17]: 256 µg/mL
- MIC [18]: > 256 µg/mL
- MIC [19]: > 256 µg/mL
- MIC [20]: > 256 µg/mL
- MIC [21]: > 256 µg/mL
- MIC [22]: > 256 µg/mL
- MIC [23]: > 256 µg/mL
- MIC [24]: > 256 µg/mL
- MIC [25]: 1 µg/mL
- MIC [26]: 8 µg/mL
- MIC [27]: 16 µg/mL
- MIC [28]: 1 µg/mL
- MIC [29]: 4 µg/mL
- MIC [30]: 4 µg/mL
- MIC [31]: 8 µg/mL
- MIC [32]: 8 µg/mL
- MIC [33]: 128 µg/mL
- MIC [34]: > 256 µg/mL
- MIC [35]: > 256 µg/mL
- MIC [36]: 128 µg/mL
- MIC [37]: > 256 µg/mL
- MIC [38]: > 256 µg/mL
- MIC [39]: > 256 µg/mL
- MIC [40]: > 256 µg/mL
- MIC [41]: 0.03 µg/mL
- MIC [42]: 0.25 µg/mL
- MIC [43]: 0.5 µg/mL
- MIC [44]: 0.06 µg/mL
- MIC [45]: 0.5 µg/mL
- MIC [46]: 0.5 µg/mL
- MIC [47]: 1 µg/mL
- MIC [48]: 1 µg/mL

Compound: CO/N=C(\C(=O)N[C@@H]1C(=O)N2C(C(=O)O)=C(COC(C)=O)CS[C@H]12)c1csc(N)n1 [Cefotaxime]
- MIC [1]: 64 µg/mL
- MIC [2]: 128 µg/mL
- MIC [3]: > 256 µg/mL
- MIC [4]: > 256 µg/mL
- MIC [5]: 128 µg/mL
- MIC [6]: 128 µg/mL
- MIC [7]: > 256 µg/mL
- MIC [8]: > 256 µg/mL
- MIC [9]: 64 µg/mL
- MIC [10]: 128 µg/mL
- MIC [11]: > 256 µg/mL
- MIC [12]: > 256 µg/mL
- MIC [13]: 128 µg/mL
- MIC [14]: 128 µg/mL
- MIC [15]: > 256 µg/mL
- MIC [16]: > 256 µg/mL
- MIC [17]: > 256 µg/mL
- MIC [18]: > 256 µg/mL
- MIC [19]: > 256 µg/mL
- MIC [20]: > 256 µg/mL
- MIC [21]: > 256 µg/mL
- MIC [22]: > 256 µg/mL
- MIC [23]: > 256 µg/mL
- MIC [24]: > 256 µg/mL
- MIC [25]: 8 µg/mL
- MIC [26]: 16 µg/mL
- MIC [27]: 64 µg/mL
- MIC [28]: 16 µg/mL
- MIC [29]: 16 µg/mL
- MIC [30]: 16 µg/mL
- MIC [31]: 64 µg/mL
- MIC [32]: 64 µg/mL
- MIC [33]: 32 µg/mL
- MIC [34]: 32 µg/mL
- MIC [35]: > 256 µg/mL
- MIC [36]: 32 µg/mL
- MIC [37]: 64 µg/mL
- MIC [38]: 64 µg/mL
- MIC [39]: 256 µg/mL
- MIC [40]: 256 µg/mL
- MIC [41]: 0.06 µg/mL
- MIC [42]: 0.125 µg/mL
- MIC [43]: 2 µg/mL
- MIC [44]: 0.25 µg/mL
- MIC [45]: 1 µg/mL
- MIC [46]: 1 µg/mL
- MIC [47]: 4 µg/mL
- MIC [48]: 4 µg/mL

Compound: CO[C@@]1(NC(=O)Cc2cccs2)C(=O)N2C(C(=O)O)=C(COC(N)=O)CS[C@@H]21 [Cefoxitin]
- MIC [1]: > 256 µg/mL
- MIC [2]: > 256 µg/mL
- MIC [3]: > 256 µg/mL
- MIC [4]: > 256 µg/mL
- MIC [5]: > 256 µg/mL
- MIC [6]: > 256 µg/mL
- MIC [7]: > 256 µg/mL
- MIC [8]: > 256 µg/mL
- MIC [9]: 4 µg/mL
- MIC [10]: 8 µg/mL
- MIC [11]: 64 µg/mL
- MIC [12]: 16 µg/mL
- MIC [13]: 64 µg/mL
- MIC [14]: 64 µg/mL
- MIC [15]: > 256 µg/mL
- MIC [16]: > 256 µg/mL
- MIC [17]: 4 µg/mL
- MIC [18]: 8 µg/mL
- MIC [19]: 64 µg/mL
- MIC [20]: 16 µg/mL
- MIC [21]: 64 µg/mL
- MIC [22]: 64 µg/mL
- MIC [23]: > 256 µg/mL
- MIC [24]: > 256 µg/mL
- MIC [25]: > 256 µg/mL
- MIC [26]: > 256 µg/mL
- MIC [27]: > 256 µg/mL
- MIC [28]: > 256 µg/mL
- MIC [29]: > 256 µg/mL
- MIC [30]: > 256 µg/mL
- MIC [31]: > 256 µg/mL
- MIC [32]: > 256 µg/mL
- MIC [33]: 4 µg/mL
- MIC [34]: 8 µg/mL
- MIC [35]: 128 µg/mL
- MIC [36]: 16 µg/mL
- MIC [37]: 64 µg/mL
- MIC [38]: 64 µg/mL
- MIC [39]: > 256 µg/mL
- MIC [40]: > 256 µg/mL
- MIC [41]: 4 µg/mL
- MIC [42]: 4 µg/mL
- MIC [43]: 128 µg/mL
- MIC [44]: 16 µg/mL
- MIC [45]: 64 µg/mL
- MIC [46]: 64 µg/mL
- MIC [47]: > 256 µg/mL
- MIC [48]: > 256 µg/mL
- effects on the MIC (production of ESBLs tested alone): no significant (≥4-fold) effects
